Key:
human ADAMTS-5 = human ADAMTS-5 (Homo sapiens (Human), UniProt Q9UNA0); details: read-out: hADAMTS-5 potency IC50
Experimental: Finally, the fluorescence is read on the Envision (Perkin Elmer) after an incubation of 90 min at 37° C.

human TACE = human TACE (Homo sapiens (Human), UniProt P78536); details: read-out: TACE potency IC50
Chain of human TACE (P78536 whole entry, looked up, change not shown): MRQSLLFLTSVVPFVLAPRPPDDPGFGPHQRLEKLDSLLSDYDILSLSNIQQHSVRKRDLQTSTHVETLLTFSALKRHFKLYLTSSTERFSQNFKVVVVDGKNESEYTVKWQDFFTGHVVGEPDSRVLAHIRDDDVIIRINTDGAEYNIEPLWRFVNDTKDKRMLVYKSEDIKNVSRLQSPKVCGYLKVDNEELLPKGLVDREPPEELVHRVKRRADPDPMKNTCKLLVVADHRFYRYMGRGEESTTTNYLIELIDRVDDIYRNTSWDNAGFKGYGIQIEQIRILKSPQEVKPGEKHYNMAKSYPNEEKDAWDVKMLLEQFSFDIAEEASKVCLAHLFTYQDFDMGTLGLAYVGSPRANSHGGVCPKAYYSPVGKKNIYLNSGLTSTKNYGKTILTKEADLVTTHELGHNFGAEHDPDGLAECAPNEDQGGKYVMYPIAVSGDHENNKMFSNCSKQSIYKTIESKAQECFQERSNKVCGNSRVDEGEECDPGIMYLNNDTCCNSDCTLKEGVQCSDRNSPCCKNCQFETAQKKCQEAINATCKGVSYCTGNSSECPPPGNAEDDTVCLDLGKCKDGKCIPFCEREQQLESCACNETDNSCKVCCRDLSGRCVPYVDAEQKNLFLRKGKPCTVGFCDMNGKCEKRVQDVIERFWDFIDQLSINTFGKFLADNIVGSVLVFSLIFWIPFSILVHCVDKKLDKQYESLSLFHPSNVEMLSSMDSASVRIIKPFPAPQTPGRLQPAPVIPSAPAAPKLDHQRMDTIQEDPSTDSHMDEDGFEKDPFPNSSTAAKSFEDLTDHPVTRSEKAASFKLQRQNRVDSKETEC

Chain of human ADAMTS-5 (Q9UNA0 262-930): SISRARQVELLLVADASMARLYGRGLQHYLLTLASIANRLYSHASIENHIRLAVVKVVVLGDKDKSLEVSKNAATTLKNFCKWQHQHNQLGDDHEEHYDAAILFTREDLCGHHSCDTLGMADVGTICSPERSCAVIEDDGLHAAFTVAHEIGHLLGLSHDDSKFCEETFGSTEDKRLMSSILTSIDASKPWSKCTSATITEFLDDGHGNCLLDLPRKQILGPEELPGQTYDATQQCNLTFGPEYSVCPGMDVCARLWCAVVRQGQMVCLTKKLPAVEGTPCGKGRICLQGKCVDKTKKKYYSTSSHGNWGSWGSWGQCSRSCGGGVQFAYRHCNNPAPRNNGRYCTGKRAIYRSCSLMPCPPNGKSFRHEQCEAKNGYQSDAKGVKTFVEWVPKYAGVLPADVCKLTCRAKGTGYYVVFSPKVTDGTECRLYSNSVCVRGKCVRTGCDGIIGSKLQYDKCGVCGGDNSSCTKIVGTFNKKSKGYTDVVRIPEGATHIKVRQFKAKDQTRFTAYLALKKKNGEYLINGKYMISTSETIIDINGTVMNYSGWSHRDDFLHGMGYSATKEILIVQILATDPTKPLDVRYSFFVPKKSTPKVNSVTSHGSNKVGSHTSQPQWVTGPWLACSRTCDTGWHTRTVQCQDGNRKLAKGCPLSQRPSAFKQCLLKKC

| SMILES | IC50 (human ADAMTS-5) | IC50 (human TACE) |
| --- | --- | --- |
| C[C@H]1CN(C(=O)CCC2(C3CC3)NC(=O)NC2=O)CCN1c1ccc2cnn(C)c2c1 (stereo partly drawn) [compound 341, 5-cyclopropyl-5-[3-[(3S)-3-methyl-4-(1-methylindazol-6-yl)piperazin-1-yl]-3-oxo-propyl]imidazolidine-2,4-dione] | 264 nM | 885 nM |
| CC(CC1(C2CC2)NC(=O)NC1=O)C(=O)N1CCN(c2ccc(F)cc2)[C@@H](C)C1 (stereo partly drawn) [compound 343, 5-cyclopropyl-5-[3-[(3S)-4-(4-fluorophenyl)-3-methyl-piperazin-1-yl]-2-methyl-3-oxo-propyl]imidazolidine-2,4-dione] | 22 nM | > 20000 nM |
| Cc1nc(N2CCN(C(=O)CCC3(C4CC4)NC(=O)NC3=O)C[C@@H]2C)no1 (stereo partly drawn) [compound 344, 5-cyclopropyl-5-[3-[(3S)-3-methyl-4-(5-methyl-1,2,4-oxadiazol-3-yl)piperazin-1-yl]-3-oxo-propyl]imidazolidine-2,4-dione] | > 20000 nM | > 20000 nM |
| C[C@H]1CN(C(=O)CCC2(c3ccccn3)NC(=O)NC2=O)CCN1c1cccc(F)c1 (stereo partly drawn) [compound 345, 5-[3-[(3S)-4-(3-fluorophenyl)-3-methyl-piperazin-1-yl]-3-oxo-propyl]-5-(2-pyridyl)imidazolidine-2,4-dione] | 50 nM | > 4000 nM |
| C[C@H]1CN(C(=O)CCC2(c3ccccn3)NC(=O)NC2=O)CCN1c1ccc(Cl)c(Cl)c1 (stereo partly drawn) [compound 347, 5-[3-[(3S)-4-(3,4-dichlorophenyl)-3-methyl-piperazin-1-yl]-3-oxo-propyl]-5-(2-pyridyl)imidazolidine-2,4-dione] | 21 nM | 2380 nM |
| C[C@H]1CN(C(=O)CCC2(c3ccccn3)NC(=O)NC2=O)CCN1c1cc(F)cc(F)c1 (stereo partly drawn) [compound 348, 5-[3-[(3S)-4-(3,5-difluorophenyl)-3-methyl-piperazin-1-yl]-3-oxo-propyl]-5-(2-pyridyl)imidazolidine-2,4-dione] | 34 nM | > 4000 nM |
| C[C@H]1CN(C(=O)CCC2(c3cnccn3)NC(=O)NC2=O)CCN1c1ccc(F)c(Cl)c1 (stereo partly drawn) [compound 349, 5-[3-[(3S)-4-(3-chloro-4-fluoro-phenyl)-3-methyl-piperazin-1-yl]-3-oxo-propyl]-5-pyrazin-2-yl-imidazolidine-2,4-dione] | 62 nM | > 4000 nM |
| Cc1noc(N2CCN(C(=O)CCC3(C4CC4)NC(=O)NC3=O)C[C@@H]2C)n1 (stereo partly drawn) [compound 352, 5-cyclopropyl-5-[3-[(3S)-3-methyl-4-(3-methyl-1,2,4-oxadiazol-5-yl)piperazin-1-yl]-3-oxo-propyl]imidazolidine-2,4-dione] | > 20000 nM | > 20000 nM |
| Cc1nc(C2(CCC(=O)N3CCN(c4cc(F)cc(F)c4)[C@@H](C)C3)NC(=O)NC2=O)c[nH]1 (stereo partly drawn) [compound 354, 5-[3-[(3S)-4-(3,5-difluorophenyl)-3-methyl-piperazin-1-yl]-3-oxo-propyl]-5-(2-methyl-1H-imidazol-4-yl)imidazolidine-2,4-dione] | > 20000 nM | > 20000 nM |
| COc1ccc(C2(CCC(=O)N3CCN(c4cc(F)cc(F)c4)[C@@H](C)C3)NC(=O)NC2=O)cn1 (stereo partly drawn) [compound 356, 5-[3-[(3S)-4-(3,5-difluorophenyl)-3-methyl-piperazin-1-yl]-3-oxo-propyl]-5-(6-methoxy-3-pyridyl)imidazolidine-2,4-dione] | 40 nM | > 4000 nM |
| CCC1(CC(C)C(=O)N2CCN(c3cncc(F)c3)[C@@H](C)C2)NC(=O)NC1=O (stereo partly drawn) [compound 360, 5-ethyl-5-[3-[(3S)-4-(5-fluoro-3-pyridyl)-3-methyl-piperazin-1-yl]-2-methyl-3-oxo-propyl]imidazolidine-2,4-dione] | 119 nM | > 20000 nM |
| C[C@H]1CN(C(=O)CCC2(c3cn(C)cn3)NC(=O)NC2=O)CCN1c1cc(F)cc(F)c1 (stereo partly drawn) [compound 361, 5-[3-[(3S)-4-(3,5-difluorophenyl)-3-methyl-piperazin-1-yl]-3-oxo-propyl]-5-(1-methylimidazol-4-yl)imidazolidine-2,4-dione] | 51 nM | > 20000 nM |
| C[C@H]1CN(C(=O)CCC2(c3cocn3)NC(=O)NC2=O)CCN1c1cc(F)cc(F)c1 (stereo partly drawn) [compound 362, 5-[3-[(3S)-4-(3,5-difluorophenyl)-3-methyl-piperazin-1-yl]-3-oxo-propyl]-5-oxazol-4-yl-imidazolidine-2,4-dione] | 50 nM | > 20000 nM |
| COCC1(CC(C)C(=O)N2CCN(c3cncc(Cl)c3)[C@@H](C)C2)NC(=O)NC1=O (stereo partly drawn) [compound 363, 5-[3-[(3S)-4-(5-chloro-3-pyridyl)-3-methyl-piperazin-1-yl]-2-methyl-3-oxo-propyl]-5-(methoxymethyl)imidazolidine-2,4-dione] | 76 nM | > 12000 nM |
| COCC1(CC(C)C(=O)N2CCN(c3ccc(F)cc3)[C@@H](C)C2)NC(=O)NC1=O (stereo partly drawn) [compound 366, 5-[3-[(3S)-4-(4-fluorophenyl)-3-methyl-piperazin-1-yl]-2-methyl-3-oxo-propyl]-5-(methoxymethyl)imidazolidine-2,4-dione] | 36 nM | > 4000 nM |
| C[C@H]1CN(C(=O)CCC2(C3CC3)NC(=O)NC2=O)CCN1c1cccc(-c2ccnn2C)c1 (stereo partly drawn) [compound 368, 5-cyclopropyl-5-[3-[(3S)-3-methyl-4-[3-(2-methylpyrazol-3-yl)phenyl]piperazin-1-yl]-3-oxo-propyl]imidazolidine-2,4-dione] | 257 nM | > 20000 nM |
| Cc1noc(C)c1-c1cccc(N2CCN(C(=O)CCC3(C4CC4)NC(=O)NC3=O)C[C@@H]2C)c1 (stereo partly drawn) [compound 369, 5-cyclopropyl-5-[3-[(3S)-4-[3-(3,5-dimethylisoxazol-4-yl)phenyl]-3-methyl-piperazin-1-yl]-3-oxo-propyl]imidazolidine-2,4-dione] | 1080 nM | > 20000 nM |
| CC(C)n1cc(-c2cccc(N3CCN(C(=O)CCC4(C5CC5)NC(=O)NC4=O)C[C@@H]3C)c2)cn1 (stereo partly drawn) [compound 370, 5-cyclopropyl-5-[3-[(3S)-4-[3-(1-isopropylpyrazol-4-yl)phenyl]-3-methyl-piperazin-1-yl]-3-oxo-propyl]imidazolidine-2,4-dione] | 532 nM | > 20000 nM |
| C[C@H]1CN(C(=O)CCC2(C3CC3)NC(=O)NC2=O)CCN1c1cnnc(Cl)c1 (stereo partly drawn) [compound 373, 5-[3-[(3S)-4-(6-chloropyridazin-4-yl)-3-methyl-piperazin-1-yl]-3-oxo-propyl]-5-cyclopropyl-imidazolidine-2,4-dione] | 1530 nM | > 20000 nM |
| C[C@H]1CN(C(=O)CCC2(C3CC3)NC(=O)NC2=O)CCN1c1ccn(C)n1 (stereo partly drawn) [compound 374, 5-cyclopropyl-5-[3-[(3S)-3-methyl-4-(1-methylpyrazol-3-yl)piperazin-1-yl]-3-oxo-propyl]imidazolidine-2,4-dione] | 3080 nM | > 20000 nM |
| COC[C@]1(CC(C)C(=O)N2CCN(c3cc(F)cc(-c4cn[nH]c4)c3)[C@@H](C)C2)NC(=O)NC1=O (stereo partly drawn) [compound 376, 5-[3-[(3S)-4-[3-fluoro-5-(1H-pyrazol-4-yl)phenyl]-3-methyl-piperazin-1-yl]-2-methyl-3-oxo-propyl]-5-(methoxymethyl)imidazolidine-2,4-dione] | 52 nM | 2430 nM |
| C[C@H]1CN(C(=O)CCC2(C3CC3)NC(=O)NC2=O)CCN1c1cccc(-c2cncnc2)c1 (stereo partly drawn) [compound 377, 5-cyclopropyl-5-[3-[(3S)-3-methyl-4-(3-pyrimidin-5-ylphenyl)piperazin-1-yl]-3-oxo-propyl]imidazolidine-2,4-dione] | 700 nM | > 20000 nM |
| C[C@@H](C[C@@]1(C2CC2)NC(=O)NC1=O)C(=O)N1CCN(c2ccc(F)c(-c3cn[nH]c3)c2)[C@@H](C)C1 [compound 378, 5-cyclopropyl-5-[3-[(3S)-4-[4-fluoro-3-(1H-pyrazol-4-yl)phenyl]-3-methyl-piperazin-1-yl]-2-methyl-3-oxo-propyl]imidazolidine-2,4-dione] | 22 nM | > 4000 nM |
| COC[C@]1(C[C@H](C)C(=O)N2CCN(c3cccc(-c4cn[nH]c4)c3)[C@@H](C)C2)NC(=O)NC1=O [compound 380, 5-(methoxymethyl)-5-[2-methyl-3-[(3S)-3-methyl-4-[3-(1H-pyrazol-4-yl)phenyl]piperazin-1-yl]-3-oxo-propyl]imidazolidine-2,4-dione] | 47 nM | > 4000 nM |
| C[C@H]1CN(C(=O)CCC2(C3CC3)NC(=O)NC2=O)CCN1c1cccc(-c2ccc(Cl)nn2)c1 (stereo partly drawn) [compound 381, 5-[3-[(3S)-4-[3-(6-chloropyridazin-3-yl)phenyl]-3-methyl-piperazin-1-yl]-3-oxo-propyl]-5-cyclopropyl-imidazolidine-2,4-dione] | 1970 nM | > 20000 nM |
| C[C@H]1CN(C(=O)CCC2(c3ncccn3)NC(=O)NC2=O)CCN1c1cc(F)cc(F)c1 (stereo partly drawn) [compound 382, 5-[3-[(3S)-4-(3,5-difluorophenyl)-3-methyl-piperazin-1-yl]-3-oxo-propyl]-5-pyrimidin-2-yl-imidazolidine-2,4-dione] | 39 nM | > 20000 nM |
| Cc1ccc(C2(CCC(=O)N3CCN(c4cc(F)cc(Cl)c4)[C@@H](C)C3)NC(=O)NC2=O)cn1 (stereo partly drawn) [compound 383, 5-[3-[(3S)-4-(3-chloro-5-fluoro-phenyl)-3-methyl-piperazin-1-yl]-3-oxo-propyl]-5-(6-methyl-3-pyridyl)imidazolidine-2,4-dione] | 43 nM | > 4000 nM |
| Cc1ccc(C2(CCC(=O)N3CCN(c4cc(Cl)cc(Cl)c4)[C@@H](C)C3)NC(=O)NC2=O)cn1 (stereo partly drawn) [compound 384, 5-[3-[(3S)-4-(3,5-dichlorophenyl)-3-methyl-piperazin-1-yl]-3-oxo-propyl]-5-(6-methyl-3-pyridyl)imidazolidine-2,4-dione] | 60 nM | 2230 nM |
| Cc1ccc(C2(CCC(=O)N3CCN(c4cccc(F)c4)[C@@H](C)C3)NC(=O)NC2=O)cn1 (stereo partly drawn) [compound 385, 5-[3-[(3S)-4-(3-fluorophenyl)-3-methyl-piperazin-1-yl]-3-oxo-propyl]-5-(6-methyl-3-pyridyl)imidazolidine-2,4-dione] | 71 nM | > 4000 nM |

— US9926281B2 (priority 2014, dated 2018)
